From patent US20200297684A1, “TOPICAL COMPOSITIONS AND METHODS FOR TREATING ACNE VULGARIS” (Bausch Health Ireland Limited, priority 2019, published 2020)
Where “and” joins values, the source holds several entries; their conditions need not be identical. Equal entries are not always repeated.

Experiments:
[1] = Chemical stability of tretinoin in an admixture with benzoyl peroxide at room condition and 32° C., under room light; assay type: physicochemical; details: for Assay (% label claim), 32° C., Room Light / Assay (% label claim), Room Condition: tretinoin in admixture with benzoyl peroxide
Procedure: The chemical stability of tretinoin in an admixture with benzoyl peroxide of the present invention at room temperature and 32 degrees C., under room light condition is shown in Table 1.
More than 97 and 96 percent of treinoin in the original admixture of the present invention remains after 24 hours at room condition and 32° C., under room light, respectively. Such stability ensures that the therapeutic efficacy of tretinoin is not diminished between once-a-day applications.

[2] = equal parts of 0.05% tretinoin gel and gel containing 5% BPO and clindamycin phosphate; 32° C. for 7 hours; cited from earlier work
[3] = time 0 hr, replicates top/middle/bottom

time for which tretinoin in the admixture is chemically stable ([1]; admixture of tretinoin and benzoyl peroxide compositions, even at 32° C. under room light condition): at least 24 hours
percent of tretinoin in the original admixture remaining ([1]; after 24 hours at 32° C., under room light): > 96%
percent of tretinoin in the original admixture remaining ([1]; after 24 hours at room condition): More than 97%
Assay (% label claim), Room Condition ([1]; time 8 hr): 99.5 % label claim
SMILES: CC1=C(/C=C/C(C)=C/C=C/C(C)=C/C(=O)O)C(C)(C)CCC1 [Tretinoin, tretinoin]
Assay (% label claim), 32° C., Room Light [1, 3]: 98.8 % label claim and 97.1 % label claim and 98.3 % label claim
Assay (% label claim), Room Condition [1, 3]: 98.8 % label claim and 97.1 % label claim and 98.3 % label claim
Assay (% label claim), 32° C., Room Light ([1]; time 1 hr): 98.5 % label claim and 97.1 % label claim
Assay (% label claim), Room Condition ([1]; time 1 hr): 96.8 % label claim and 97.2 % label claim
Assay (% label claim), Room Condition ([1]; time 3 hr): 97.8 % label claim and 97.5 % label claim
Assay (% label claim), 32° C., Room Light ([1]; time 4 hr): 98.6 % label claim and 98.2 % label claim
Assay (% label claim), Room Condition ([1]; time 5 hr): 97.0 % label claim and 97.3 % label claim
Assay (% label claim), 32° C., Room Light ([1]; time 12 hr): 98.9 % label claim and 97.0 % label claim
Assay (% label claim), Room Condition ([1]; time 12 hr): 97.3 % label claim and 97.8 % label claim
Assay (% label claim), 32° C., Room Light ([1]; time 24 hr): 96.6 % label claim and 97.8 % label claim
Assay (% label claim), Room Condition ([1]; time 24 hr): 98.1 % label claim and 97.4 % label claim
stability of tretinoin in the mixture [2]: stable
